Values after ≈ are worked out from the molar mass of the structure shown. Active and inactive are the calls of the source. The rule behind the calls is not given here.

Experiment [1] relates to Salmonella enterica subsp. enterica serovar Gallinarum. Kind of experiment: Antibacterial activity against Salmonella gallinarum ATCC 9184. The class given is functional.
Experiment [2] deals with Klebsiella pneumoniae. Kind of experiment: Antibacterial activity against Klebsiella pneumoniae ATCC 10031. The class given is functional.
Experiment [3] deals with Candida albicans. The experiment can be described thus: […] activity against Candida albicans ATCC 10231. Type of experiment: functional.
The test system of experiment [4] is Pseudomonas aeruginosa. Kind of experiment: Antibacterial activity against Pseudomonas aeruginosa ATCC 27853. The class given is functional, organism-based.
Experiment [5] concerns Staphylococcus aureus. The experiment can be described thus: Antibacterial activity against Staphylococcus aureus ATCC 13709. Type of experiment: functional.
The test system of experiment [6] is Mycolicibacterium smegmatis. The experiment can be described thus: Antibacterial activity against Mycobacterium smegmatis ATCC 607. Type of experiment: functional.
For experiment [7], the system named is Escherichia coli. The experiment can be described thus: Antibacterial activity against Escherichia coli ATCC 9637. Type of experiment: functional.

Regarding `COc1ccc([C@H]2COc3c(ccc(O)c3CC=C(C)C)C2)c(O)c1`, the MIC entry in experiment [1], in experiment [2], in experiment [4], in experiment [6] and in experiment [7] was “inactive” throughout. For the same compound, the MIC in experiment [3] stood at 12.5 µg/mL (≈ 36.7 µM); in experiment [5] it was 6.25 µg/mL (≈ 18.4 µM).

As to `O=C1c2c(O)cc(O)cc2OC(c2ccc(O)cc2)C1C1C(=O)c2c(O)cc(O)cc2OC1c1ccc(O)cc1` (stereo unspecified) [CHAMAEJASMIN], the MIC entry in experiment [1], in experiment [2], in experiment [3], in experiment [4], in experiment [6] and in experiment [7] was “inactive” throughout. The MIC in experiment [5] worked out at 12.5 µg/mL (≈ 23 µM).

As for `CN[C@@H]1[C@H](O[C@H]2[C@H](O[C@H]3[C@H](O)[C@@H](O)[C@H](N=C(N)N)[C@@H](O)[C@@H]3N=C(N)N)O[C@@H](C)[C@]2(O)C=O)O[C@@H](CO)[C@H](O)[C@H]1O.CN[C@@H]1[C@H](O[C@H]2[C@H](O[C@H]3[C@H](O)[C@@H](O)[C@H](N=C(N)N)[C@@H](O)[C@@H]3N=C(N)N)O[C@@H](C)[C@]2(O)C=O)O[C@@H](CO)[C@H](O)[C@H]1O.O=S(=O)(O)O.O=S(=O)(O)O.O=S(=O)(O)O` [STREPTOMYCIN SULFATE], the MIC was determined as 50 µg/mL in experiment [1]; 2.5 µg/mL in experiment [2]; 5 µg/mL in experiment [5]; 1.25 µg/mL in experiment [6]; 5 µg/mL in experiment [7]. The MIC result in experiment [3] and in experiment [4] was “inactive” throughout.
